Measurements taken from US12655135B2, “Benzo seven-membered ring bifunctional compound and application thereof” (CHIA TAI TIANQING PHARMACEUTICAL GROUP CO., LTD., priority 2021, dated 2026).

Target: T1, ERα (Homo sapiens, UniProt P03372)
T1 construct: endogenous in cells; host or cells: MCF-7
T1 sequence (P03372 1-595): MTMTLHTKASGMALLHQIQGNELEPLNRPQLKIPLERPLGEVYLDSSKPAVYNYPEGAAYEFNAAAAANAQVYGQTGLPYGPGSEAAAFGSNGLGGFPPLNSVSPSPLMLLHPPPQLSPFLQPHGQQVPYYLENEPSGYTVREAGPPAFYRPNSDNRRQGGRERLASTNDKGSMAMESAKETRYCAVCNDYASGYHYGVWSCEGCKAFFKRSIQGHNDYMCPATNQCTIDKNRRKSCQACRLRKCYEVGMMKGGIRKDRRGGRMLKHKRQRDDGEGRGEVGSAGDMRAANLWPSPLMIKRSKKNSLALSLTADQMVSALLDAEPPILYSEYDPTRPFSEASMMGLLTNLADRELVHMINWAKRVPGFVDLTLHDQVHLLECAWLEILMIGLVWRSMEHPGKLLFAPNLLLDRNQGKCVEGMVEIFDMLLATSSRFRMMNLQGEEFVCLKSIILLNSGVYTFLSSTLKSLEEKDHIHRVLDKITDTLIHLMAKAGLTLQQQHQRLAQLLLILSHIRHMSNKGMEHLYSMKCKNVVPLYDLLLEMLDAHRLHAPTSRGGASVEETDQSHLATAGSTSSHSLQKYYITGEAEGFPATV
Test: MCF-7 ERα degradation experiment (Human Total ERα ELISA, 4 h incubation)
Format: cell-based
Details: MCF-7 cells, 4 h incubation at 37° C., ERα by ELISA; Max well 100 nM FUL, Min well 0.5% DMSO; read-out: Degradation of ERα by compounds DC50
Protocol: Experimental Example 1: MCF-7 ERα Degradation Experiment
Compounds were tested for their ability to degrade ERα receptors under experimental conditions.
Phenol red-free MEM medium was purchased from Wisent, fetal bovine serum was purchased from Biosera, and Human Total ERα/NR3A1 ELISA kits were purchased from R&D. MCF-7 cell line was purchased from the Cell Bank of Type Culture Collection Committee of the Chinese Academy of Sciences. Nivo5 multi-marker analyzer (PerkinElmer).
• 1. MCF-7 cells were resuspended in medium (phenol red-free MEM+5% Charcoal Dextran Stripped FBS+1% PS), seeded in a 96-well clear cell culture plate, and incubated overnight in a carbon dioxide incubator; • 2. ELISA plate was coated with stripes, Human Total ERα Capture Antibody was diluted with 1×PBS, and the plate was incubated at 25° C. overnight. Day Two: • 1. Cell administration: The compounds to be tested were diluted to the 8th concentration. The concentration of the compound was 20 μM, and the compound was diluted successively to the 8th concentration of 0.256 nM at 4 μM. Two duplicate wells were set. The compound was transferred to the intermediate plate and then to the cell plate to give a final DMSO concentration of 0.5% per well, and the plate was incubated at 37° C. for 4 h; • 2. preparation of standard curve solution: 110 ng/mL of standard curve stock solution was 6-fold diluted with buffer #8 to give a solution with a concentration of 18.3 ng/mL. Then, 8-point gradient dilution was performed using buffer #3 with a final concentration of 200 pg/mL to 1.56 pg/mL; • 3. the ELISA plate was washed 3 times with a washing solution (1×PBS containing 0.05% Tween); • 4. 300 μL of blocking solution (1×PBS containing 1% BSA) was added to each well, and the plate was incubated at 25° C. for 2 h; • 5. 1×PBS was pre-cooled. After the incubation of the compound, the supernatant was removed, the plate was washed with pre-cooled 1×PBS, the cell lysate was added, and the cells were lysed on ice for 15 min; • 6. the blocking solution was removed from the ELISA plate, the plate was washed, and step 3 was repeated; • 7. after the cells were lysed, in the cell plate, the cell lysate was 6-fold diluted with 150 μL of buffer #8 per well, the mixture was pipetted and mixed well, and 100 μL of solution per well was transferred to the ELISA plate; • 8. at the same time, 100 μL of Standard per well was transferred to the ELISA plate and incubated overnight at 25° C. Day Three: • 1. The supernatant was removed, and the plate was washed 3 times with a washing solution; • 2. Human Total ERα Detection Antibody stock solution ([…]) was 36-fold diluted with buffer #1 (1×PBS containing 1% BSA), and the final concentration of Detection Antibody was 400 ng/mL. 100 μL/well of the solution was transferred to the ELISA plate, and the plate was incubated at 25° C. for 2 h; • 3. the plate was washed with buffer #1; • 4. Streptavidin-HRP A was 200-fold diluted with buffer #1 (1×PBS containing 1% BSA), 100 μL/well of the solution was transferred to the ELISA plate, and the plate was incubated at 25° C. for 20 min; • 5. the plate was washed with buffer #1; • 6. 100 μL of Substrate Solution per well (1:1 mixture of reagent A (H2O2) and reagent B (tetramethylbenzidine)) was added to the ELISA plate, and the plate was incubated at 25° C. for 20 min; • 7. […] of stop solution was added and the OD450 absorbance was read on a plate reader. Data Analysis: […]

DC50 [nM]	SMILES
1.7	O=C1CC[C@H](N2Cc3cc(N4CCN(CC5CCN(c6ccc(C7=C(c8ccc(C(F)(F)F)nc8)CCCc8cc(O)ccc87)cc6)CC5)CC4)ccc3C2=O)C(=O)N1 [Compound 15]
7.7	Cc1ccc(C2=C(c3ccc(N4CCC(CN5CCN(c6ccc7c(c6)CN([C@H]6CCC(=O)NC6=O)C7=O)CC5)CC4)cc3)c3ccc(O)cc3CCC2)cn1 [Compound 16]
5.7	O=C1CC[C@H](N2Cc3cc(N4CCN(CC5CCN(c6ccc(C7=C(c8ccc(OC(F)(F)F)cc8)CCCc8cc(O)ccc87)cc6)CC5)CC4)ccc3C2=O)C(=O)N1 [Compound 25]
4.6	Cc1nn(C)cc1C1=C(c2ccc(N3CCC(CN4CCN(c5ccc6c(c5)CN([C@H]5CCC(=O)NC5=O)C6=O)CC4)CC3)cc2)c2ccc(O)cc2CCC1 [Compound 18]
1.1	O=C1CC[C@H](N2Cc3cc(N4CCN(CC5CCN(c6ccc(C7=C(c8ccccc8)CCCc8cc(O)ccc87)cc6)CC5)CC4)ccc3C2=O)C(=O)N1 [Compound 14]
0.7	O=C1CC[C@H](N2Cc3cc(N4CCN(CC5CCN(c6ccc(C7=C(c8ccc(OC(F)F)cc8)CCCc8cc(O)ccc87)cc6)CC5)CC4)ccc3C2=O)C(=O)N1 [Compound 24]
9.4	O=C1CC[C@H](N2Cc3cc(N4CCN(CC5CCN(c6ccc(C7=C(c8ccc(C9CC9)nc8)CCCc8cc(O)ccc87)cc6)CC5)CC4)ccc3C2=O)C(=O)N1 [Compound 17]
1.9	O=C1CC[C@H](N2Cc3cc(N4CCN(CC5CCN(c6ccc(C7=C(c8cccnc8)CCCc8cc(O)ccc87)cc6)CC5)CC4)ccc3C2=O)C(=O)N1 [Compound 21]
2.4	Cc1ccc(C2=C(c3ccc(N4CCC(CN5CCN(c6ccc7c(c6)CN([C@H]6CCC(=O)NC6=O)C7=O)CC5)CC4)cc3)c3ccc(O)cc3CCC2)c(C)n1 [Compound 22]
1.7	O=C1CC[C@H](N2Cc3cc(N4CCN(CC5CCN(c6ccc(C7=C(c8ccc(OC9CC9)cc8)CCCc8cc(O)ccc87)cc6)CC5)CC4)ccc3C2=O)C(=O)N1 [Compound 26]
1.4	CC(C)(O)c1ccc(C2=C(c3ccc(N4CCC(CN5CCN(c6ccc7c(c6)CN([C@H]6CCC(=O)NC6=O)C7=O)CC5)CC4)cc3)c3ccc(O)cc3CCC2)cn1 [Compound 23]
2.1	O=C1CC[C@H](N2Cc3cc(N4CCN(CC5CCN(c6ccc(C7=C(c8ccc(F)nc8)CCCc8cc(O)ccc87)cc6)CC5)CC4)ccc3C2=O)C(=O)N1 [Compound 19]
0.9	O=C1CC[C@H](N2Cc3cc(N4CCN(CC5CCN(c6ccc(C7=C(c8ccncc8)CCCc8cc(O)ccc87)cc6)CC5)CC4)ccc3C2=O)C(=O)N1 [Compound 20]

More lines, now with the values behind:

SMILES	DC50 [nM]
O=C1CC[C@H](N2Cc3cc(N4CCN(CCC5CCN(c6ccc(C7=C(c8ccccc8)CCCc8cc(O)ccc87)cc6)CC5)CC4)ccc3C2=O)C(=O)N1 [Compound 4]	1.5
O=C1CCC(N2Cc3cc(N4CCN(CC5CCN(c6ccc(C7=C(c8ccccc8)CCCc8cc(O)ccc87)cc6)CC5)CC4)ccc3C2=O)C(=O)N1 (centres unmarked) [Compound 2]	2.69
O=C1CC[C@H](N2Cc3cc(N4CCN(CC5CCN(c6ccc(C7=C(c8ccccc8)CCCc8cc(C(=O)O)ccc87)cc6)CC5)CC4)ccc3C2=O)C(=O)N1 [Compound 12]	4.73
O=C1CC[C@H](N2Cc3cc(N4CCN(CC5CCN(c6ccc(C7=C(c8ccc(F)cc8)CCCc8cc(O)ccc87)cc6)CC5)CC4)ccc3C2=O)C(=O)N1 [Compound 6]	1
O=C1CC[C@H](N2Cc3cc(N4CCN(CCC5CCN(c6ccc(C7=C(c8ccccc8)CCCc8cc(C(=O)O)ccc87)cc6)CC5)CC4)ccc3C2=O)C(=O)N1 [Compound 13]	4.47
COc1ccc2c(c1)CCCC(c1ccc(F)cc1)=C2c1ccc(N2CCC(CN3CCN(c4ccc5c(c4)CN([C@H]4CCC(=O)NC4=O)C5=O)CC3)CC2)cc1 [Compound 8]	8.3
O=C1CCC(N2Cc3cc(N4CCN(CCCCCOc5ccc(C6=C(c7ccccc7)CCCc7cc(O)ccc76)cc5)CC4)ccc3C2=O)C(=O)N1 (centres unmarked) [Compound 1]	0.84
O=C1CC[C@H](N2Cc3cc(N4CCN(CC5CCN(c6ccc(C7=C(c8ccc(O)cc8)CCCc8cc(O)ccc87)cc6)CC5)CC4)ccc3C2=O)C(=O)N1 [Compound 9]	0.4
Cc1ccc(C2=C(c3ccc(N4CCC(CN5CCN(c6ccc7c(c6)CN([C@H]6CCC(=O)NC6=O)C7=O)CC5)CC4)cc3)c3ccc(O)cc3CCC2)cc1 [Compound 11]	1
COc1ccc2c(c1)OCCC(c1ccccc1)=C2c1ccc(N2CCC(CN3CCN(c4ccc5c(c4)CN([C@H]4CCC(=O)NC4=O)C5=O)CC3)CC2)cc1 [Compound 10]	5.7
COc1ccc2c(c1)CCCC(c1ccccc1)=C2c1ccc(N2CCC(CN3CCN(c4ccc5c(c4)CN([C@H]4CCC(=O)NC4=O)C5=O)CC3)CC2)cc1 [Compound 7]	8
O=C1CC[C@H](N2Cc3cc(N4CCN(CC5CCN(c6ccc(C7=C(c8ccc(Cl)cc8)CCCc8cc(O)ccc87)cc6)CC5)CC4)ccc3C2=O)C(=O)N1 [Compound 5]	1.8
O=C1CCC(N2Cc3cc(N4CCN(CC5CCN(c6ccc(C7=C(c8ccc(Cl)cc8Cl)CCCc8cc(C(=O)O)ccc87)cc6)CC5)CC4)ccc3C2=O)C(=O)N1 (centres unmarked) [Compound 3]	5.8
